Counter-ions that a name gives are not always drawn.
What was measured:
[1] = biological target: T1, recombinant human aggrecanase 2 (ADAMTS-5) (Homo sapiens, UniProt Q9UNA0); test: InviLISA Aggrecanase activity assay, aggrecanase 2; format: biochemical; settings: for inhibition at 10 µM: inhibitors tested at 10 μM final concentration
T1 construct: ADAMTS-5 aminoacids S262-G625 with C-terminal tag; purchased Invitek GmbH, Berlin
T1 sequence (Q9UNA0 262-625): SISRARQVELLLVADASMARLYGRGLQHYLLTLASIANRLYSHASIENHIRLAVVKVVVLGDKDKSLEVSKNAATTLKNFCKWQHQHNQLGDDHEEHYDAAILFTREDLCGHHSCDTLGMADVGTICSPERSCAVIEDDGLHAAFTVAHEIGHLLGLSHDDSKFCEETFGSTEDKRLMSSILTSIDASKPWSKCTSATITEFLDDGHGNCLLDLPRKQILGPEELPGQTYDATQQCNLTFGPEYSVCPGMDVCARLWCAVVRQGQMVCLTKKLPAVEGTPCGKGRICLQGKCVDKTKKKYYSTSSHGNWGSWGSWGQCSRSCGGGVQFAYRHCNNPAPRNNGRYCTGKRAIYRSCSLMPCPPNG
Description: (§1) The InviLISA Aggrecanase activity assay (Invitek GmbH, Berlin) was used to screen and characterise aggrecanase inhibitors. The assay was carried out in two steps, according to Will et al. (Will H, Dettloff M, Bendzko P, Svenshnikov P, A Quantitative Assay for aggrecanase Activity; 2005, Journal of Biomolecular Techniques, 16 (4), 459-472). A recombinant fragment of human aggrecan interglobular domain (aggrecan-IGD; T331-G458) is first digested with aggrecanase. Proteolytic cleavage of the substrate releases an aggrecan peptide with the N-terminal sequence ARGSVIL (ARGSVIL-peptide), that was then quantified with two monoclonal anti-peptide antibodies (ELISA module). For precise calculation of product, ARGSVIL-peptide standard concentrations were run in parallel.
(§2) 1) Proteolysis of aggrecan-IGD by aggrecanase. Aggrecan-IGD was incubated with standard recombinant human aggrecanase 1 (ADAMTS-4 aminoacids F213-A579 with C-terminal tag) or standard recombinant human aggrecanase 2 (ADAMTS-5 aminoacids S262-G625 with C-terminal tag) in the absence (total enzymatic activity) or presence (modulated enzymatic activity) of inhibitors to be tested. Enzymes were pre-incubated with the inhibitors or the appropriate concentration of diluent as control (DMSO 0.25% final concentration in proteolysis), at 4° C. for 30 min prior to assaying their activity. Five microliters of mix enzyme-inhibitor were added to the substrate (0.1 μM final concentration) in a total volume of 100 μL and incubated for 15 minutes at 37° C. The reaction was terminated with EDTA-containing buffer. The inhibitors were tested at 10 μM final concentration and compounds achieving ≧50% inhibitory effect were evaluated for IC50 calculation, in a range generally extended from 0.1 to 10 μM final concentration.
(§3) 2) Aggrecan peptide ELISA. ARGSVIL-peptide standard, proteolytic digestion of Aggrecan-IGD with standard aggrecanases and test samples were incubated in microtiter wells pre-coated with anti-ARGSVIL-neoepitope antibody. ARGSVIL-peptide is bound to the coated antibody, while other components are removed by washing and aspiration. The bound ARGSVIL-peptide was detected with a second peroxidase-labelled antibody. Any excess of the conjugate was removed by washing and aspiration. The amount of peroxidase bound to different wells was determined in reactions with peroxidase substrate TMB. The reactions are stopped by addition of sulphuric acid solution and absorbance is read at 450 nm in a microtiter plate spectrophotometer.

[2] = biological target: T2, recombinant human aggrecanase 1 (ADAMTS-4) (Homo sapiens, UniProt O75173); test: InviLISA Aggrecanase activity assay, aggrecanase 1; format: biochemical; settings: for inhibition at 10 µM: inhibitors tested at 10 μM final concentration
T2 construct: ADAMTS-4 aminoacids F213-A579 with C-terminal tag; purchased Invitek GmbH, Berlin
T2 sequence (O75173 213-579): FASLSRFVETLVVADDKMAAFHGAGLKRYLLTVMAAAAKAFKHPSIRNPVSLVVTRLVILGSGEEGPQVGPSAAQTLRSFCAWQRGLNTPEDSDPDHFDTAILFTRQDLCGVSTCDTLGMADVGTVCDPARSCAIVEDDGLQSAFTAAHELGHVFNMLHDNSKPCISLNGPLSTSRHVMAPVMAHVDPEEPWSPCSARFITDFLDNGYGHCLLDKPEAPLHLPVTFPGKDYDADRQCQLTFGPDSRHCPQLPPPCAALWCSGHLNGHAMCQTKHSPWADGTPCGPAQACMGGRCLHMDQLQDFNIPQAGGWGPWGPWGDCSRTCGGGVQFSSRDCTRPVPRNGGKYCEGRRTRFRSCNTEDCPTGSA
Description: as §1, §2, §3

[3] = system: mechanical hyperalgesia associated with STZ-induced diabetes; test: STZ-induced diabetes mechanical hyperalgesia, model of neuropathic pain (Randall-Selitto); format: in vivo, rat
Description: Painful diabetic neuropathy is one of the most common complications of insulin-dependent diabetes in man; in particular, diabetes can be associated with neuropathic pain which fails to be treated by classical analgesics. Streptozotocin (STZ)-induced diabetes in the rat has been increasingly used as a model of painful diabetic neuropathy to assess the efficacies of potential analgesic agents (C. Courteix, Pain 1993, 53, 81-8). A representative compound of the invention was tested for efficacy in reducing mechanical hyperalgesia associated with STZ-induced diabetes in the rat, according to the experimental model as described by the literature. Diabetes was produced with the injection of a single dose (75 mg/Kg i.p.) of STZ. In the following four weeks after the induction of diabetes the clinical symptoms (weight, body and skin temperature, motility and hyperglycemia) progressively developed by the animals, are strictly monitored.
After four weeks, the scores obtained in diabetic rats to various pain stimuli (in particular mechanical stimuli) were greater than those in normal rats, indicating hyperalgesia. The hyperalgesia induced by diabetes was evaluated using the Randall-Selitto method as above described, and quantitated using the analgesimeter. Also in this case, the difference in the mechanical pain threshold between the basal value (generally 230-250 g) and the one tolerated by the animals treated with the drug, is defined as mechanical hyperalgesia. The compound of the invention was administered i.p. (solution, Tween 80, 10% in saline) at different doses, and mechanical hyperalgesia was measured at the reported time, as maximum percent effect (MPE) which represents the difference (%) in pain threshold between the animals treated with the drug and the controls that received only the vehicle, compared with the weight borne by naïf non-diabetic controls. A 100% protection means that the diabetic animals treated with the compound can tolerate the same stimulus (weight) as the naïf non-diabetic animals. MPE higher than 100% means that the diabetic animal treated with the compound can tolerate stimuli (weight) higher than the control non-diabetic animals (hypoalgesia).
In Table 4, the effect of a representative compound of formula (I), in the above described model of neuropathic pain, is compared with some known pharmacological standards used for the clinical treatment of this pathology. In particular, from the MPE data at 0.5 hrs, the doses yielding a protection of 50% (ED50) and 100% (ED100) have been calculated.

[4] = system: CFA-induced prolonged inflammation; test: CFA model of chronic inflammatory pain (Randall-Selitto); format: in vivo, rat
[5] = 10 mg/Kg IP, NE = not effective
[6] = 30 mg/Kg IP, NE = not effective
[7] = 100 mg/Kg IP, NE = not effective
[8] = 300 mg/Kg IP, NE = not effective

CC(=N)Nc1ccc2oc(-c3cccc(-n4ccnc4)c3)c(O)c(=O)c2c1 [Example 8, 2-[(3-(imidazol-1-yl)-phenyl]-3-hydroxy-6-[(1-iminoethyl)amino]-4H-1-benzopyran-4-one dihydrochloride]
IC50 [1]: 10 µM

COc1ccc(-c2oc3ccc(NC(C)=N)cc3c(=O)c2O)cc1 [Example 12, 2-(4-methoxyphenyl)-3-hydroxy-6-[(1-iminoethyl)amino]-4H-1-benzopyran-4-one hydrochloride monohydrate]
IC50 [2]: 2.7 µM | IC50 [1]: 1.12 µM

COCCC(=N)Nc1ccc2oc(-c3ccc4c(c3)OCO4)c(O)c(=O)c2c1 [Example 19, 2-(benzo[1,3]dioxol-5-yl)-3-hydroxy-6-[(1-iminopropyl-3-methoxy)amino]-4H-1-benzopyran-4-one hydrochloride]
inhibition at 10 µM [2]: 0% | IC50 [1]: 8 µM

CN(C)CCC=C1c2ccccc2CCc2ccccc21 [Amitriptyline]
MPE 0.5 hrs ([3]; 3 mg/Kg IP, NE = not effective): 44% | MPE 1.5 hrs ([3]; 3 mg/Kg IP, NE = not effective): 40% | MPE 0.5 hrs [3, 5]: 68% | MPE 1.5 hrs [3, 5]: 77% | MPE 0.5 hrs [3, 6]: 65% | MPE 1.5 hrs [3, 6]: 69% | MPE 3 hrs [3, 6]: 23% | ED50 ([3]; Rattus norvegicus, IP, calculated from the MPE data at 0.5 hrs, NC = not calculable, read-out: ED50 0.5 hrs): 3.76 mg/kg

COc1ccc(C(=N)Nc2ccc3oc(-c4ccc(OC)cc4)c(O)c(=O)c3c2)cc1 [Example 14, N-[2-(4-methoxyphenyl)-3-hydroxy-4H-1-benzopyran-4-one-6-yl]-4-methoxybenzene carboxiimidamide hydrochloride]
inhibition at 10 µM [2]: 0% | IC50 [1]: 10 µM

CC(=N)Nc1ccc2oc(-c3ccc(OCc4ccccc4)cc3)c(O)c(=O)c2c1 [Example 22, 2-[(4-benzyloxy-phenyl]-3-hydroxy-6-[(1-iminoethyl)amino]-4H-1-benzopyran-4-one hydrochloride]
inhibition at 10 µM [1]: 34%

N=C(CC1CC1)Nc1ccc2oc(-c3ccc(-n4ccnc4)cc3)c(O)c(=O)c2c1 [Example 6, 2-[(4-imidazol-1-yl)-phenyl]-3-hydroxy-6-[(1-iminoethyl-2-cyclopropyl)amino]-4H-1-benzopyran-4-one dihydrochloride monohydrate]
IC50 [2]: 1.61 µM | IC50 [1]: 0.2 µM

COc1ccc(-c2oc3ccc(NC(C)=N)cc3c(=O)c2O)cn1 [Example 20, 2-(6-methoxypyridin-3-yl)-3-hydroxy-6-[(1-iminoethyl)amino]-4H-1-benzopyran-4-one]
inhibition at 10 µM [2]: 0% | IC50 [1]: 2.2 µM

CC(=N)Nc1ccc2oc(-c3ccc4c(c3)CCO4)c(O)c(=O)c2c1 [Example 15, 2-(dihydrobenzofuran-5-yl)-3-hydroxy-6-[(1-iminoethyl)amino]-4H-1-benzopyran-4-one hydrochloride]
inhibition at 10 µM [2]: 10% | IC50 [1]: 15 µM

CN1C(C(=O)Nc2ccccn2)=C(O)c2ccccc2S1(=O)=O [Piroxicam, reference compound]
MPE 0.5 hrs ([4]; 3 mg/Kg IP, NE = not effective): 25% | MPE 1.5 hrs ([4]; 3 mg/Kg IP, NE = not effective): 40% | MPE 0.5 hrs [4, 5]: 46% | MPE 1.5 hrs [4, 5]: 73% | MPE 3 hrs [4, 5]: 62% | MPE 0.5 hrs [4, 6]: 102% | MPE 1.5 hrs [4, 6]: 111% | MPE 3 hrs [4, 6]: 54% | MPE 6 hrs [4, 6]: 24% | MPE 24 hrs [4, 6]: 38% | ED100 0.5 hrs ([4]; IP, calculated from the MPE data at 0.5 hrs): 34.33 mg/kg | ED50 ([4]; Rattus norvegicus, IP, calculated from the MPE data at 0.5 hrs, read-out: ED50 0.5 hrs): 7.65 mg/kg

COCCC(=N)Nc1ccc2oc(-c3ccc(-n4ccnc4)cc3)c(O)c(=O)c2c1 [Example 7]
inhibition at 10 µM [2]: 31% | IC50 [1]: 2.4 µM

N=C(CC1CC1)Nc1ccc2oc(-c3ccc(O)cc3)c(O)c(=O)c2c1 [Example 11, 2-(4-hydroxyphenyl-3-hydroxy-6-[(1-iminoethyl-2-cyclopropyl)amino]-4H-1-benzopyran-4-one hydrochloride]
inhibition at 10 µM [2]: 30% | inhibition at 10 µM [1]: 40%

CC(=N)Nc1ccc2oc(-c3ccc(S(C)(=O)=O)cc3)c(O)c(=O)c2c1 [Example 9, 2-(4-methansulfonylphenyl)-3-hydroxy-6-[(1-iminoethyl)amino]-4H-1-benzopyran-4-one hydrochloride]
inhibition at 10 µM [2]: 20% | IC50 [1]: 11.5 µM

CC(=N)Nc1ccc2oc(-c3ccc(O)c(O)c3)c(O)c(=O)c2c1 [Example 10, 2-(3,4-dihydroxyphenyl)-3-hydroxy-6-[(1-iminoethyl)amino]-4H-1-benzopyran-4-one hydrochloride]
IC50 [2]: 0.61 µM | IC50 [1]: 3.5 µM

CC(=N)Nc1ccc2oc(-c3ccc4c(c3)OCO4)c(O)c(=O)c2c1 [Example 16, 2-(benzo[1,3]dioxol-5-yl)-3-hydroxy-6-[(1-iminoethyl)amino]-4H-1-benzopyran-4-one hydrochloride]
inhibition at 10 µM [2]: 32% | IC50 [1]: 5 µM

CC(=N)Nc1ccc2oc(-c3ccc(-n4ccnc4)cc3)c(O)c(=O)c2c1 [Example 5, 2-[(4-imidazol-1-yl)-phenyl]-3-hydroxy-6-[(1-iminoethyl)amino]-4H-1-benzopyran-4-one hydrochloride]
inhibition at 10 µM [2]: 30% | IC50 [1]: 0.87 µM

NCC1(CC(=O)O)CCCCC1 [Gabapentin]
MPE 0.5 hrs [3, 6]: 39% | MPE 1.5 hrs [3, 6]: 41% | MPE 0.5 hrs [3, 7]: 55% | MPE 1.5 hrs [3, 7]: 38% | MPE 0.5 hrs [3, 8]: 47% | MPE 1.5 hrs [3, 8]: 36%

N=C(CC1CC1)Nc1ccc2oc(-c3ccc4c(c3)OCO4)c(O)c(=O)c2c1 [Example 18]
inhibition at 10 µM [2]: 0% | IC50 [1]: 4.3 µM

CC(=N)Nc1ccc2oc(-c3ccc(O)nc3)c(O)c(=O)c2c1 [Example 21, 2-(6-hydroxypyridin-3-yl)-3-hydroxy-6-[(1-iminoethyl)amino]-4H-1-benzopyran-4-one hydrochloride]
inhibition at 10 µM [1]: 20%
